Experimental data reported in patent US10568873B1, “Safranal-sorafenib combination therapy for liver cancer” (United Arab Emirates University, priority 2019, dated 2020).

Assays:
Format in all cases: in vivo, male Wistar rats
[1] = tested on: DEN-induced hepatic neoplasia in rats; experiment: Serum ALT and AST biochemical analysis in DEN-induced HCC rats; details: P<0.05, one-way ANOVA, Tukey
Description: (§1) A modified version of the protocol described by DePeralta et al. (2016) and Schiffer et al. (2005) was used here to establish the hepatocarcinogenesis model.
On the first 15 weeks, the control PBS group was treated with 1×PBS, whereas the experimental groups were given an intraperitoneal injection (IP) of 50 mg/kg of diethylnitrosoamine (DEN, Sigma Aldrich), a widely used chemical for inducing cancer, once a week. DEN was diluted with 1×PBS. Following a one-week break (week 16), the next three weeks (weeks 17 to 19) of treatment commenced. All drugs were administrated by oral gavage. […] For the HCC+sorafenib group, the drug (Carbosynth Limited) was administered at a dose of 10 mg/kg, five days a week. For the HCC+safranal group, the drug (Sigma Aldrich) was administered at a dose of 200 mg/kg, five days a week. For the HCC+safranal+sorafenib group, the drugs were administered at a dose of 200 mg/kg safranal+10 mg/kg sorafenib, five days a week. Both safranal and sorafenib were diluted with 1×PBS and drops of Tween 80. […] After 24-hours from last treatment, the rats were euthanized by mild diethyl ether and dissected in equal conditions. […]
Alanine Transaminase (ALT), and Aspartate Aminotransferase (AST) assays were performed using commercial kits (Abcam), according to the protocol provided. ALT and AST activities were measured spectrophotometrically using Epoch by BioTek.

[2] = tested on: DEN-induced hepatic neoplasia in rats; experiment: Liver gross examination and number of liver nodules
Description: as §1
On the first 15 weeks, the control PBS group was treated with 1×PBS, whereas the experimental groups were given an intraperitoneal injection (IP) of 50 mg/kg of diethylnitrosoamine (DEN, Sigma Aldrich), a widely used chemical for inducing cancer, once a week. DEN was diluted with 1×PBS. Following a one-week break (week 16), the next three weeks (weeks 17 to 19) of treatment commenced. All drugs were administrated by oral gavage. […] For the HCC+sorafenib group, the drug (Carbosynth Limited) was administered at a dose of 10 mg/kg, five days a week. For the HCC+safranal group, the drug (Sigma Aldrich) was administered at a dose of 200 mg/kg, five days a week. For the HCC+safranal+sorafenib group, the drugs were administered at a dose of 200 mg/kg safranal+10 mg/kg sorafenib, five days a week. Both safranal and sorafenib were diluted with 1×PBS and drops of Tween 80. […] After 24-hours from last treatment, the rats were euthanized by mild diethyl ether and dissected in equal conditions. Blood and whole liver were collected.

[3] = tested on: DEN-induced hepatic neoplasia in rats; experiment: Histology (H&E), area of neoplastic foci (AHF); details: H&E sections; FIG. 5; P<0.05
Description: as §1
(§2) On the first 15 weeks, the control PBS group was treated with 1×PBS, whereas the experimental groups were given an intraperitoneal injection (IP) of 50 mg/kg of diethylnitrosoamine (DEN, Sigma Aldrich), a widely used chemical for inducing cancer, once a week. DEN was diluted with 1×PBS. Following a one-week break (week 16), the next three weeks (weeks 17 to 19) of treatment commenced. All drugs were administrated by oral gavage. All doses were chosen according to literature (Alsaied et al., 2014; Karafakioğlu et al., 2017). For the HCC+sorafenib group, the drug (Carbosynth Limited) was administered at a dose of 10 mg/kg, five days a week. For the HCC+safranal group, the drug (Sigma Aldrich) was administered at a dose of 200 mg/kg, five days a week. For the HCC+safranal+sorafenib group, the drugs were administered at a dose of 200 mg/kg safranal+10 mg/kg sorafenib, five days a week. Both safranal and sorafenib were diluted with 1×PBS and drops of Tween 80. […] After 24-hours from last treatment, the rats were euthanized by mild diethyl ether and dissected in equal conditions. Blood and whole liver were collected. […]

[4] = tested on: DEN-induced hepatic neoplasia in rats; experiment: Reticulin staining of liver sections; details: reticulin-stained sections; FIG. 6
Description: as §1, §2

PCNA = experiment: Western blot of proliferation-related protein PCNA in liver; details: normalized to total protein, n=4, P<0.05, FIG. 7
Description: as §1
(§3) On the first 15 weeks, the control PBS group was treated with 1×PBS, whereas the experimental groups were given an intraperitoneal injection (IP) of 50 mg/kg of diethylnitrosoamine (DEN, Sigma Aldrich), a widely used chemical for inducing cancer, once a week. DEN was diluted with 1×PBS. Following a one-week break (week 16), the next three weeks (weeks 17 to 19) of treatment commenced. All drugs were administrated by oral gavage. All doses were chosen according to literature (Alsaied et al., 2014; Karafakioğlu et al., 2017). […]
(§4) One hundredth gm (10 mg) liver was homogenized using 200 μl RIPA buffer (Sigma Aldrich) mixed with 2 μl protease inhibitor and 2 μl phosphatase inhibitor (Sigma Aldrich), and centrifuged at 4° C., 15,000 rpm for 15 minutes. […] Protein concentration was measured by Pierce BCA Protein Assay Kit with Promega GloMax Discover. […] Band density and quantification was done using ImageJ (Amin et al., 2011). […]
(§5) Due to technical reasons, total protein was used in this study as the loading control instead of the other common markers like GAPDH, β-tubulin, and β-actin. […] Ten internal controls were used, and their expressions were determined using RT-PCR. […]

Cdk1, Cyclin B1, Cdc25B = experiment: Western blot of cell cycle-related proteins in liver
Description: as §1, §3, §4, §5

[5] = tested on: Bcl-2, Bax, Pro-Caspase-9, Pro-Caspase-3, PARP; experiment: Western blot of intrinsic apoptosis-related proteins in liver
Description: as §1
On the first 15 weeks, the control PBS group was treated with 1×PBS, whereas the experimental groups were given an intraperitoneal injection (IP) of 50 mg/kg of diethylnitrosoamine (DEN, Sigma Aldrich), a widely used chemical for inducing cancer, once a week. DEN was diluted with 1×PBS. Following a one-week break (week 16), the next three weeks (weeks 17 to 19) of treatment commenced. All drugs were administrated by oral gavage. All doses were chosen according to literature (Alsaied et al., 2014; Karafakioğlu et al., 2017). For the HCC+sorafenib group, the drug (Carbosynth Limited) was administered at a dose of 10 mg/kg, five days a week. For the HCC+safranal group, the drug (Sigma Aldrich) was administered at a dose of 200 mg/kg, five days a week. For the HCC+safranal+sorafenib group, the drugs were administered at a dose of 200 mg/kg safranal+10 mg/kg sorafenib, five days a week. Both safranal and sorafenib were diluted with 1×PBS and drops of Tween 80. […] After 24-hours from last treatment, the rats were euthanized by mild diethyl ether and dissected in equal conditions. Blood and whole liver were collected.
One hundredth gm (10 mg) liver was homogenized using 200 μl RIPA buffer (Sigma Aldrich) mixed with 2 μl protease inhibitor and 2 μl phosphatase inhibitor (Sigma Aldrich), and centrifuged at 4° C., 15,000 rpm for 15 minutes. Whole cell lysate was taken and stored at −80° C. Protein concentration was measured by Pierce BCA Protein Assay Kit with Promega GloMax Discover. A total of 35 μg of protein was loaded on a sodium dodecyl sulfate-polyacrylamide gel electrophoresis gel. […] Band density and quantification was done using ImageJ (Amin et al., 2011). […]
as §5

## CC1=C(C=O)C(C)(C)CC=C1 [safranal, 2,6,6-trimethyl-1,3-cyclohexadiene-1-carboxaldehyde]
[1]
  ALT levels as compared to HCC group: significantly (P<0.05) decreased ALT levels
[2]; FIG. 3
  lesions comparing to treatment with sorafenib alone: dramatically decreased lesions
[2]; week 20, FIG. 2, FIG. 3
  number of liver nodules / lesions comparing to HCC animals: reduced lesions
[3]
  area of neoplastic foci / restoration of normal liver architecture: seems to enhance (P<0.05) the restoration of the normal architecture of the liver
[4]
  reticular fibers' breakage and morphology comparing to HCC group: reduced reticular fibers' breakage and restored their morphology
PCNA
  PCNA expression: significantly downregulated PCNA
Cdk1, Cyclin B1, Cdc25B; FIG. 9
  Cdk1, cyclin B1, Cdc25B decrease versus sorafenib alone: showed a greater decrease than treatment with sorafenib alone
Cdk1, Cyclin B1, Cdc25B; P<0.05, FIG. 8, FIG. 9
  Cdk1, cyclin B1, Cdc25B levels comparing to HCC animals: significantly decreased their levels
[5]; FIG. 10, FIG. 11
  expression of the anti-apoptotic protein Bcl-2 compared to HCC groups: significantly (P<0.05) decreased
  expression of the pro-apoptotic protein Bax compared to HCC groups: significantly (P<0.05) increased
[5]; P<0.05, FIG. 12
  expression of pro-caspases-9 & 3 and whole PARP compared to HCC group: significantly decreased
